The results in this text go back to PMC8500670, “A selective WDR5 degrader inhibits acute myeloid leukemia in patient-derived mouse models” (Science translational medicine, 2021).

In assay [1] the target is T1, NSD2 (Homo sapiens, UniProt O96028).
T1 sequence (O96028 1-1365): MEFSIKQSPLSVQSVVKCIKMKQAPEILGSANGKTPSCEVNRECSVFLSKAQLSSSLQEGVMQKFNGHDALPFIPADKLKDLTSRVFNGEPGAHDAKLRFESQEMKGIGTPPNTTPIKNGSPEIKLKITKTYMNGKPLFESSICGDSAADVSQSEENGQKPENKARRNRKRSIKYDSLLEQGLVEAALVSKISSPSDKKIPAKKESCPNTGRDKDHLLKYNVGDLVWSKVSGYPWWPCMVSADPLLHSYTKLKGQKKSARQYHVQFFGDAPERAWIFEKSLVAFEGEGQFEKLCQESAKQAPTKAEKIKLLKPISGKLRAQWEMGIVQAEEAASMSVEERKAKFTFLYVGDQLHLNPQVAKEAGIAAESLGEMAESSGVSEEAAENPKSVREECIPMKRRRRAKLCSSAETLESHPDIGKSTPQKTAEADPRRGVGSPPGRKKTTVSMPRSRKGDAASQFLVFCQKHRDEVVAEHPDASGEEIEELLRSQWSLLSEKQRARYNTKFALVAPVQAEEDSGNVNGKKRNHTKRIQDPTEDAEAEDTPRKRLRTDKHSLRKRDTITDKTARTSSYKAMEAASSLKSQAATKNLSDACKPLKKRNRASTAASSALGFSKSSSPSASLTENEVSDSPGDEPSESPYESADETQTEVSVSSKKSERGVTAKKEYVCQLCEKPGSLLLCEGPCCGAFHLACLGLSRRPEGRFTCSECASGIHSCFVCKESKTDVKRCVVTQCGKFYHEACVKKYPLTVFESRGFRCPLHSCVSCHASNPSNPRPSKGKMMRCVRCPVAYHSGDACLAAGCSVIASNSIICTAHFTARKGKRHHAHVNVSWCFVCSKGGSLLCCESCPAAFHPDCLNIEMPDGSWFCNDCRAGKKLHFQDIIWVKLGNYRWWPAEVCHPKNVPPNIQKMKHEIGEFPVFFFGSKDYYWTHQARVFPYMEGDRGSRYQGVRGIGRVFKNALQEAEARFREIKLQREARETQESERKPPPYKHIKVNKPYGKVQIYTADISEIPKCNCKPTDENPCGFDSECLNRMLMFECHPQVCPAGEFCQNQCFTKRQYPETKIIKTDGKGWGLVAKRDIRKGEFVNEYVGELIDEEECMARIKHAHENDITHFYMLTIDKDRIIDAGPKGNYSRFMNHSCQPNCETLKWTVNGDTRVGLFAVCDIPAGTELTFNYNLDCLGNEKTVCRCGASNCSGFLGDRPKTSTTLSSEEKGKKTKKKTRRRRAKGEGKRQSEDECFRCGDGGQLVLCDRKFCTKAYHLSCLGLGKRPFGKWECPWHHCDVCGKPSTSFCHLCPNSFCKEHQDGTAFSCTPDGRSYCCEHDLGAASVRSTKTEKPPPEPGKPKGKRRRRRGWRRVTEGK
Nature of the assay: biochemical. The arrangement: protein methyltransferase inhibition panel, single concentration, duplicate. As for the experimental part:
(§1) We next assessed selectivity of MS67 against 22 protein methyltransferases (table S2) and a broad panel of common drug targets including 45 kinases (table S3) and 44 G protein–coupled receptors (GPCR), ion channels, and transporters (table S4). […] We subsequently determined that MS67 had moderate binding affinity (Ki = 1.0 ± 0.8 μM) to Sigma 2 receptor (fig. S10).

Assay [2] concerns the target T2, G9a (Homo sapiens, UniProt Q96KQ7).
T2 construct: gene EHMT2
T2 sequence (Q96KQ7 1-1210): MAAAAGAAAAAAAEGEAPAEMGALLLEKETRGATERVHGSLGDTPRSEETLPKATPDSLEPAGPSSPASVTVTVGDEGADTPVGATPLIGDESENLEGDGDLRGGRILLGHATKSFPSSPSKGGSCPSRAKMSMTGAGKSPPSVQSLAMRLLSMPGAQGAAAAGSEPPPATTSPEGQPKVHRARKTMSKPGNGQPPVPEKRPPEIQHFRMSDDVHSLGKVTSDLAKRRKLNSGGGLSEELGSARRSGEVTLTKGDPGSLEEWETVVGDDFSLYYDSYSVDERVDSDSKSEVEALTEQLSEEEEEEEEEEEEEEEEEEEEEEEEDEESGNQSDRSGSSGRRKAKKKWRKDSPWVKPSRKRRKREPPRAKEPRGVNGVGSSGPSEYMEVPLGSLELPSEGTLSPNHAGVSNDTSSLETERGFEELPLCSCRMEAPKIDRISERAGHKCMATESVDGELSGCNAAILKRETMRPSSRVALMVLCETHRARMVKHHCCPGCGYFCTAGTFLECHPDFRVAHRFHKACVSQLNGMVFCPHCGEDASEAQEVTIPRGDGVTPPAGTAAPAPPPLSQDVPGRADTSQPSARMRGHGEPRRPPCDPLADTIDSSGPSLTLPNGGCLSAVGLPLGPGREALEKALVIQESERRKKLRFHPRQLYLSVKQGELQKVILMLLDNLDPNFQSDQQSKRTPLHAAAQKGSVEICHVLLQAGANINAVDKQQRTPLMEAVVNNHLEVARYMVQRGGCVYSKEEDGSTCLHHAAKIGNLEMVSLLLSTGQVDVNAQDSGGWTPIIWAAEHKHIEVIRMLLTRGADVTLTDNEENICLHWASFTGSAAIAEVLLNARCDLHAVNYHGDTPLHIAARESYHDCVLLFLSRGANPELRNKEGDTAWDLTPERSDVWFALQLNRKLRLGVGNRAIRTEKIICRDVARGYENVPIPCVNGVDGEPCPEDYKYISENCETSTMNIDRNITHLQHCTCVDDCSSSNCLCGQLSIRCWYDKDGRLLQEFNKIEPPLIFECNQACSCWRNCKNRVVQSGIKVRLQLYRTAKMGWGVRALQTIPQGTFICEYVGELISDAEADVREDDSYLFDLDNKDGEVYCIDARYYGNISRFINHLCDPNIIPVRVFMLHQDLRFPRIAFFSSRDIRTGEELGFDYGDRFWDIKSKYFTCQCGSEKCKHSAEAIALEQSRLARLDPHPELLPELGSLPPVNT
Nature of the assay: biochemical. More on the design: protein methyltransferase inhibition panel, single concentration, duplicate. As to the method:
as §1

Each structure is given as a SMILES string. Some results are limits rather than exact numbers.

As for `Cc1ncsc1-c1ccc([C@H](C)NC(=O)[C@@H]2C[C@@H](O)CN2C(=O)[C@@H](NC(=O)CNC(=O)c2ccc(F)c(-c3ccc(N4C[C@@H](C)N(C)[C@@H](C)C4)c(NC(=O)c4c[nH]c(=O)cc4C(F)(F)F)c3)c2)C(C)(C)C)cc1` [MS67], the inhibition at 10 µM in assay [1] and in assay [2] was less than 10% each time.
